Measured values taken from publication PMC10976043, “Function and Mechanism of Antiviral Wasp Venom Peptide Protopolybia-MP III and Its Derivatives against HSV-1” (Toxins, 2024).
Read-outs that look alike come from different tables or passages of the source. Ends that are not written are not given here.

How the values were obtained:
HSV-1 ICP0 = format: cell-based, herpes simplex virus type 1; conditions: for inhibition rate on intracellular HSV-1 ICP0 protein expression: ICP0, 1 h; for inhibition rate on intracellular HSV-1 ICP0 expression level: ICP0, 24 h
Protocol: (§1) (A) Amino acid sequence of Protopolybia-MP III. Basic residues are labeled blue, and acidic residues are labeled red. (B,C) Suppression of intracellular HSV-1 infection by Protopolybia-MP III. Cells were preincubated with Protopolybia-MP III at different concentrations or PBS for 1 h and then infected with HSV-1 at a multiplicity of infection (MOI) of 1. After 24 h, the cells were collected. Intracellular HSV-1 RNA was analyzed by qPCR (B), and intracellular HSV-1 ICP0 protein levels were analyzed by Western blotting (C). (D) Suppression of Protopolybia-MP III on extracellular HSV-1 particles. Cells were treated with Protopolybia-MP III at different concentrations or PBS for 24 h, and then the supernatant was collected and evaluated in a plaque formation assay. (E) Cytotoxicity of Protopolybia-MP III to Vero cells. Cells were treated with Protopolybia-MP III or PBS at different concentrations for 24 h, and then the cytotoxicity was determined by CCK8 assay. * p < 0.05. ** p < 0.01. *** p < 0.001.
(§2) Figure 2 Protopolybia-MP III inhibits HSV-1 replication in human cell lines. (A) Cytotoxicities of Protopolybia-MP III to A549 cells, HCEC, and SK-N-MC. Cells were treated with Protopolybia-MP III at different concentrations or PBS for 24 h, and then cytotoxicities were determined by the CCK8 assay. (B,C) Suppression of intracellular HSV-1 infection by Protopolybia-MP III in A549 cells, HCEC, and SK-N-MC. Cells were preincubated with Protopolybia-MP III at different concentrations or PBS for 1 h and then infected with HSV-1 at an MOI of 1. After 24 h, the cells were collected. Intracellular HSV-1 RNA was analyzed by qPCR (B), and intracellular HSV-1 ICP0 protein expression levels were analyzed by Western blotting (C). (D) Inhibition of Protopolybia-MP III on extracellular HSV-1 particles in A549 cells, HCEC, and SK-N-MC. Cells were treated with Protopolybia-MP III at different concentrations or PBS for 24 h, and then the supernatant was collected and evaluated in a plaque formation assay. * p < 0.05. ** p < 0.01. *** p < 0.001.
(§3) Figure 7 Antiviral activity analysis of Protopolybia-MP III mutants. (A) Amino acid sequences of Protopolybia-MP III mutants. Identical amino acids among Protopolybia-MP I, Protopolybia-MP III, and its mutants are marked in blue, and different amino acids are marked in red. (B) Suppression of Protopolybia-MP I, Protopolybia-MP III, and its mutants on intracellular HSV-1 content. Cells were preincubated with 20 μg/mL peptides or PBS for 1 h and then infected with HSV-1 at an MOI of 1. After 24 h, the cells were collected. Intracellular HSV-1 ICP0 protein levels were analyzed by Western blotting. The ratios of HSV-1 ICP0 to GAPDH were calculated by ImageJ software. (C) Inhibition of HSV-1 free virion infectivity by Protopolybia-MP I, Protopolybia-MP III, and its mutants. HSV-1 (MOI = 1) and 5 μg/mL peptides or PBS were coincubated at 37 °C for 1 h, and the mixtures were then used to infect Vero cells. After 24 h, cells were collected, and intracellular HSV-1 RNA was analyzed by qPCR. ns, no significance. * p < 0.05. ** p < 0.01. *** p < 0.001.
(§4) HSV-1 was kindly provided by Professor Zhijian Cao of Wuhan University. Cells were infected with HSV-1 at an MOI of 1 for 24 h. Then, cells were collected for qPCR, Western blotting, and immunofluorescence assays, and the extracellular supernatant was used for plaque formation assays.
Cells were collected and lysed in 1% SDS. The cell lysate was heated at 100 °C for 20 min and centrifuged at 12,000 rpm at 4 °C for 15 min, and then the supernatant was collected and assayed with a BCA Protein Quantification Kit (Vazyme). Equal amounts of protein were separated using a PAGE Gel Fast Preparation Kit (10%) (Epizyme Biotech, Wuhan, China) and transferred to nitrocellulose (NC) membranes (Millipore, Wuhan, China). […]

HSV-1 virion = assay: HSV-1 free virion infectivity assay, qPCR; format: cell-based, herpes simplex virus type 1; conditions: mutant comparison (Figure 7C): 5 μg/mL coincubated with HSV-1 (MOI 1) at 37 °C for 1 h, then Vero cells infected, 24 h
Protocol: Figure 5 Protopolybia-MP III destroys the integrity of HSV-1 free virions. (A) Schematic diagram for studying the effect of Protopolybia-MP III on HSV-1 free virion infectivity. (B) Effects of Protopolybia-MP III on HSV-1 free virion infectivity at different temperatures. HSV-1 (MOI = 1) and 20 μg/mL Protopolybia-MP III or PBS were coincubated at 4 °C, 22 °C, and 37 °C for 1 h, and then Vero cells were infected as described in (A). After 24 h, cells were collected, and intracellular HSV-1 RNA was analyzed by qPCR. (C) Effects of different concentrations of Protopolybia-MP III on HSV-1 free virion infectivity. HSV-1 (MOI = 1) and 1 or 10 μg/mL Protopolybia-MP III or PBS were coincubated at 37 °C for 1 h, and then Vero cells were infected as described in (A). After 24 h, cells were collected, and intracellular HSV-1 RNA was analyzed by qPCR. (D,E) The effect of Protopolybia-MP III on HSV-1 free virion integrity. HSV-1 and 20 μg/mL Protopolybia-MP III or PBS were coincubated at 37 °C for 1 h. Then, after centrifuging for 2 h at 40,000 rpm at 4 °C, the contents of HSV-1 gB in the supernatant and precipitate were detected by Western blotting (D). In addition, the structure of HSV-1 virions after incubation with Protopolybia-MP III was observed by electron microscopy. The red arrow points to a destroyed HSV-1 virion. *** p < 0.001.
as §3
(§5) Cells were collected and lysed using TRIzol reagent (Beyotime Biotechnology, Shanghai, China) to release the intracellular total RNA, followed by precipitation with isopropanol. The first-strand cDNA was reverse-transcribed by the HiScript III 1st Strand cDNA Synthesis Kit (+gDNA wiper) (Vazyme, Nanjing, China). The cDNA was quantitated by qPCR with primers using Taq Pro Universal SYBR qPCR Master Mix (Vazyme). The HSV-1 primers were 5′-[…]-3′ (sense) and 5′-[…]-3′ (antisense). The monkey GAPDH primers were 5′-[…]-3′ (sense) and 5′-[…]-3′ (antisense). The human GAPDH primers were 5′-[…]-3′ (sense) and 5′-[…]-3′ (antisense). qPCR experiments were performed on a Bio-Rad CFX96 Touch (Pleasanton, CA, USA) according to the manufacturer’s instructions.

HSV-1 [1] = format: cell-based, herpes simplex virus type 1; conditions: Vero cells, preincubated 1 h, HSV-1 MOI 1, 24 h, qPCR
Protocol: as §1, §2, §4, §5

Vero cells = assay: CCK8 cytotoxicity assay, Vero cells; format: cell-based, monkey; conditions: 40 μg/mL, 24 h
Protocol: as §1
Cells were seeded in a 96-well plate (7000–10,000 cells per well) and cultured at 37 °C overnight. Peptides in a series of concentrations were added to the medium, and cells were then incubated at 37 °C for 24 h. […] Finally, the absorbance was measured at 450 nm using a microplate reader (BioTek, Winooski, VT, USA).

HSV-1 [2] = assay: Plaque formation assay of extracellular HSV-1 particles; format: cell-based, herpes simplex virus type 1; conditions: Vero cells treated 24 h, supernatant in plaque formation assay
Protocol: as §1, §2
Vero cells seeded in a 24-well plate at 100% confluence were infected with virus diluent or supernatant. After 1 h of absorption at 37 °C, the supernatant was removed. Cells were washed three times with PBS and replenished with a plaque-covering layer (MEM with 2% FBS and 1.5% carboxymethylcellulose). After an incubation period of approximately 3 days, the cells were stained with 1% crystal violet containing 10% methanol for 0.5 h. Then, the plaques were counted, and the viral titer was calculated according to the plaque number and dilution.

Substance	inhibition rate on intracellular HSV-1 ICP0 protein expression (HSV-1 ICP0; 20 μg/mL)	inhibition rate of HSV-1 free virion infectivity (HSV-1 virion)	also measured
INWLKLGKAVIDIL-NH2 [MP III-4]	99.4%		
INWLKLGKKVIAIL-NH2 [MP III-12]	76.8%	92.4%	
INWLKLGKKVSAIL-NH2 [Protopolybia-MP I]			inhibition rate on intracellular HSV-1 RNA (HSV-1 [1]; 5 μg/mL peptide): no effect; inhibition rate on intracellular HSV-1 RNA (HSV-1 [1]; 10 μg/mL peptide): no effect; inhibition rate on intracellular HSV-1 RNA (HSV-1 [1]; 20 μg/mL peptide): no effect; inhibition rate on intracellular HSV-1 ICP0 expression level (HSV-1 ICP0; 5 μg/mL): 17%; inhibition rate on intracellular HSV-1 ICP0 expression level (HSV-1 ICP0; 10 μg/mL): 17%; inhibition rate on intracellular HSV-1 ICP0 expression level (HSV-1 ICP0; 20 μg/mL): 25%; cytotoxicity to Vero cells (Vero cells): almost nontoxic; extracellular HSV-1 particles (plaques) (HSV-1 [2]): almost no inhibitory effect
INWLKLGKAVSAIL-NH2 [MP III-11]	73.4%	64.7%	
INWLKLGKAVSAAL-NH2 [MP III-8]	66%		
INWLKLGKAVSDIL-NH2 [MP III-9]	63.8%	63.6%	
INWLKLGKKVSDIL-NH2 [MP III-13]	60.2%		
INWLKLGKAVIAIL-NH2 [MP III-10]	100%	100%	
INWLKLGKAVSDAL-NH2 [MP III-2]	20.6%	27.4%	
INWLKLGKKVSDAL-NH2 [MP III-5]	74.8%		
INWLKLGKKVIDIL-NH2 [MP III-7]	100%	100%	
INWLKLGKAVIAAL-NH2 [MP III-3]	94%	58.3%	
INWLKLGKKVIAAL-NH2 [MP III-6]	63.2%	95.5%	
INWLKLGKKVSAAL-NH2 [MP III-14]	90.8%	25.3%	
INWLKLGKKVIDAL-NH2 [MP III-1]	53.7%	59.7%	
